In ChEMBL document CHEMBL1130485, “Novel low molecular renin inhibitors which show good oral blood pressure lowering effects in marmosets” (Bioorg Med Chem Lett, 1997):
Each block holds one molecule with its values, some of them ahead of it.

How the values were obtained:
Renin = biological target: T1, Renin (Homo sapiens, UniProt P00797); assay: In vitro renin inhibitory effect was evaluated for plasma renin activity (PRA) of human plasma, Expressed as IC50; format: cell-free
T1 sequence (P00797 whole entry): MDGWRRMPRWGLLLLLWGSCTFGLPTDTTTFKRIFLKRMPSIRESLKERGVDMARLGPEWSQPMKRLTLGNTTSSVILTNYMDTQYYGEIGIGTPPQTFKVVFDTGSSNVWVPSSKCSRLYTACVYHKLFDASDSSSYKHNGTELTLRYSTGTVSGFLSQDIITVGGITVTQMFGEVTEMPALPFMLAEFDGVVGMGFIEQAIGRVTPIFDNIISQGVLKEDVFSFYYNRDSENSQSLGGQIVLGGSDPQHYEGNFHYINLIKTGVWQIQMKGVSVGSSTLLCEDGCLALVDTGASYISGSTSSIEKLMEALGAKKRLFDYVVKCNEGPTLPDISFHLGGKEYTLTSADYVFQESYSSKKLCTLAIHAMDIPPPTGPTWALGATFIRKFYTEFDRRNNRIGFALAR

[1] = In vivo blood pressure lowering effects in salt depleted conscious marmosets was determined when a dose of 10mg/Kg, po. at 0.5 hr; format: functional, Callitrichinae
[2] = biological target: T2, Renin (Rattus norvegicus) (UniProt P08424); assay: In vitro percent Inhibitory activity against rat plasma renin at the concentration of 100000 nM; format: cell-free
T2 sequence (whole entry): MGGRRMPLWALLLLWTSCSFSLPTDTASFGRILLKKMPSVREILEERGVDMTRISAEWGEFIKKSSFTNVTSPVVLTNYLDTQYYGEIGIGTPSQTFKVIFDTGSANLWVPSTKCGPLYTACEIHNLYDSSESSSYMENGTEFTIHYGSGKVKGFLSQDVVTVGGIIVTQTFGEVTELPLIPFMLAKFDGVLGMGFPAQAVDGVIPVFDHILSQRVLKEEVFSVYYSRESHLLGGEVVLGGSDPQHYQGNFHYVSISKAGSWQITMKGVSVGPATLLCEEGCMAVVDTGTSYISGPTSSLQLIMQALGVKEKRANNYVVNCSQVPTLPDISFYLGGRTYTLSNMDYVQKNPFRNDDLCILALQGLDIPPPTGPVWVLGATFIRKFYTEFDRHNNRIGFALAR

[3] = biological target: T3, Angiotensin-converting enzyme (Homo sapiens, UniProt P12821); assay: Percent Inhibitory activity against angiotensin-converting enzyme (ACE) human at the concentration of 100000 nM
T3 sequence (P12821 whole entry): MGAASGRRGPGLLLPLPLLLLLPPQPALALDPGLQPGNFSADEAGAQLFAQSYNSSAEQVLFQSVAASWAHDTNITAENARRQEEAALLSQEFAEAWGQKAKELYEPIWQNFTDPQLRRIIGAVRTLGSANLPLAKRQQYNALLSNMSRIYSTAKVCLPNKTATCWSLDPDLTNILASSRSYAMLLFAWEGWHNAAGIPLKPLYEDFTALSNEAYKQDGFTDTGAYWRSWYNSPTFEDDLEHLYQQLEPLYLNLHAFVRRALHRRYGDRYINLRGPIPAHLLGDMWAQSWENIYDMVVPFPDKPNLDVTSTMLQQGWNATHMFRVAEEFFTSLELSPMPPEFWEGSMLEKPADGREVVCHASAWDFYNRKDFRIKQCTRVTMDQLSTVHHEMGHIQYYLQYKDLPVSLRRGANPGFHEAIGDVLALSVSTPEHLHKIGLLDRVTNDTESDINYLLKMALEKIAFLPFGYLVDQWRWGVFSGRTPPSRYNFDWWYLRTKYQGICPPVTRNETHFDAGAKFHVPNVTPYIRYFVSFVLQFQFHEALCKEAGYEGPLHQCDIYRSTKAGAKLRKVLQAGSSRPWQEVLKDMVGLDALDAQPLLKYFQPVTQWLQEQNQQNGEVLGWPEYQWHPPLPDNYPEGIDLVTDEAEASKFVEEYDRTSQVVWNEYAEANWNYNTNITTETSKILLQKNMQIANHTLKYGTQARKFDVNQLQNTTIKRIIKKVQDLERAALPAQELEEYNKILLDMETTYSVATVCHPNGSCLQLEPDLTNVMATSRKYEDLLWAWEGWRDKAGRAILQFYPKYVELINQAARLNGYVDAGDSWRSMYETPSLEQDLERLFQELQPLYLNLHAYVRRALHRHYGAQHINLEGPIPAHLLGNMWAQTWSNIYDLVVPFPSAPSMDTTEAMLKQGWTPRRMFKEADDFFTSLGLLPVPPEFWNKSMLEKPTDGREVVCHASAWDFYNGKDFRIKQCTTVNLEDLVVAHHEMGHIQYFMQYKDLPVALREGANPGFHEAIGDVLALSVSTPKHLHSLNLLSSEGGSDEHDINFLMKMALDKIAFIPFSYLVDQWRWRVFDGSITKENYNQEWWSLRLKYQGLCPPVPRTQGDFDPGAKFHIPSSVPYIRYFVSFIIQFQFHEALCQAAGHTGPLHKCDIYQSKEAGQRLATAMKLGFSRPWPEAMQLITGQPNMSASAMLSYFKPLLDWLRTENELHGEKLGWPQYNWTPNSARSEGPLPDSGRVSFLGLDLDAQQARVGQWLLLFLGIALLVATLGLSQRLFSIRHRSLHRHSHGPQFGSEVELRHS

Pepsin A (Sus scrofa) = Pepsin A (Sus scrofa) (UniProt P00791); assay: Percent Inhibitory activity against pepsin at the concentration of 100000 nM
Pepsin A (Sus scrofa), sequence (P00791 60-385 limits assumed): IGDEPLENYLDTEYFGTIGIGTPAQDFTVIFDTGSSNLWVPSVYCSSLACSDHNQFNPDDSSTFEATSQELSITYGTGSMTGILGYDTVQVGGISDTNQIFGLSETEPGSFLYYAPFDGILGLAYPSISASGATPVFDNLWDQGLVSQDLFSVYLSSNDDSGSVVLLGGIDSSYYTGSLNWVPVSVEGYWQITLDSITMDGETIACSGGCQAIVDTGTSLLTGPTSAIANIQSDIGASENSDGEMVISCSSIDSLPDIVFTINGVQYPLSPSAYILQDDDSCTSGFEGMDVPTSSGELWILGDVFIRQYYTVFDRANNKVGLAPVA

[4] = In vivo blood pressure lowering effects in salt depleted conscious marmosets was determined when a dose of 10mg/Kg, po. at 3h; format: functional, Callitrichinae
[5] = In vivo blood pressure lowering effects in salt depleted conscious marmosets was determined when a dose of 10mg/Kg, po. at 1 hr; format: functional, Callitrichinae
[6] = biological target: T3, Angiotensin-converting enzyme; assay: Inhibitory activity against ACE human, expressed as IC50
Cathepsin D = biological target: T4, Cathepsin D (Bos taurus, UniProt P80209); assay: Inhibitory activity against cathepsin D (bovine), expressed as IC50
T4 sequence (P80209 whole entry): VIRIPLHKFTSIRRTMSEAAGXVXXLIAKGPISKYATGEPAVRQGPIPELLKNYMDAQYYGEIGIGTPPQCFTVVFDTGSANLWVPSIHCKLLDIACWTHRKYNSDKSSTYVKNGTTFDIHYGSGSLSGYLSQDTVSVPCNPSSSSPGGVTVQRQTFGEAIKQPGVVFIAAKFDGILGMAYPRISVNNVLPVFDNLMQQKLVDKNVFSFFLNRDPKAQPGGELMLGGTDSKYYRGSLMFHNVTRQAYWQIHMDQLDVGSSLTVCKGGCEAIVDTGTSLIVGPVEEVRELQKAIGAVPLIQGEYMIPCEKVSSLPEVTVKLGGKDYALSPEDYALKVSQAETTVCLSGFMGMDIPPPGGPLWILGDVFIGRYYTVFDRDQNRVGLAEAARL

Pepsin A = Pepsin A (Sus scrofa, UniProt P00791); assay: In vitro inhibitory effect was evaluated against pepsin, Expressed as IC50
Pepsin A, sequence (P00791 whole entry): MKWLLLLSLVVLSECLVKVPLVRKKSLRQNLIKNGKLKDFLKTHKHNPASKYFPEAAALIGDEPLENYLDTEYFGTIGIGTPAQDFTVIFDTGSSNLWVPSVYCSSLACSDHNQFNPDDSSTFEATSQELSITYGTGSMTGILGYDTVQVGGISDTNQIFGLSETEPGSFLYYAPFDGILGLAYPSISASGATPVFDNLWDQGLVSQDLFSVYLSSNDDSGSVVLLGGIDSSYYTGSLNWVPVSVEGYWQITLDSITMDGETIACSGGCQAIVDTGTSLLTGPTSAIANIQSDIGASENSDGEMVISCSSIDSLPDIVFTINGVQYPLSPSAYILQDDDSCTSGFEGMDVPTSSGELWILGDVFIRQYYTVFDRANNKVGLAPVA

Structure (SMILES): CC(C)[C@@H](O)C[C@H](O)[C@H](CC1CCCCC1)NC(=O)[C@H](Cc1cnc[nH]1)NC(=O)[C@@H]1Cc2ccccc2CN1
IC50 (Renin): 420 nM

Structure (SMILES): CC(C)[C@@H](O)C[C@H](O)[C@H](CC1CCCCC1)NC(=O)[C@H](Cc1cnc[nH]1)NC(=O)C1Cc2ccccc2N1 (stereo in doubt)
IC50 (Renin): 4400 nM

Structure (SMILES): CC(C)[C@@H](O)C[C@H](O)[C@H](CC1CCCCC1)NC(=O)[C@H](Cc1cnc[nH]1)NC(=O)C1Cc2ccccc2N1 (stereo in doubt; 4)
IC50 (Renin): 880 nM

Structure (SMILES): CC(C)[C@@H](O)C[C@H](O)[C@H](CC1CCCCC1)NC(=O)[C@H](Cc1cnc[nH]1)NC(=O)c1cc2cccnc2[nH]1
IC50 (Renin): 800 nM

Structure (SMILES): CC(C)[C@@H](O)C[C@H](O)[C@H](CC1CCCCC1)NC(=O)[C@H](Cc1cnc[nH]1)NC(=O)c1cc2ccccc2s1
IC50 (Renin): 8200 nM

Structure (SMILES): CC(C)[C@@H](O)C[C@H](O)[C@H](CC1CCCCC1)NC(=O)[C@H](Cc1cnc[nH]1)N(C)C(=O)[C@H](Cc1ccccc1)NC(=O)N1CCC(O)CC1
IC50 (Renin): 0.68 nM

Structure (SMILES): CC(C)[C@@H](O)C[C@H](O)[C@H](CC1CCCCC1)NC(=O)[C@H](Cc1cnc[nH]1)NC(=O)c1cc2cc(O)ccc2[nH]1
IC50 (Renin): 600 nM

Structure (SMILES): CC(C)[C@@H](O)C[C@H](O)[C@H](CC1CCCCC1)NC(=O)[C@H](Cc1c[nH]cn1)NC(=O)c1cc2cc(Cl)ccc2[nH]1
IC50 (Renin): 260 nM

Structure (SMILES): CC(C)[C@@H](O)C[C@H](O)[C@H](CC1CCCCC1)NC(=O)[C@H](Cc1c[nH]cn1)NC(=O)c1cc2cc(F)ccc2[nH]1
Delta SBP [1]: -18 mmHg | Delta SBP [4]: -12 mmHg | Delta SBP [5]: -21 mmHg | IC50 (Renin): 46 nM

Structure (SMILES): CC(C)[C@@H](O)C[C@H](O)[C@H](CC1CCCCC1)NC(=O)[C@H](Cc1cnc[nH]1)NC(=O)c1cc2ccccc2[nH]1
IC50 [6]: > 100000 nM | IC50 (Cathepsin D): > 100000 nM | IC50 (Pepsin A): > 100000 nM

Structure (SMILES): CC(=O)n1c(C(=O)N[C@@H](Cc2cnc[nH]2)C(=O)N[C@@H](CC2CCCCC2)[C@@H](O)C[C@H](O)C(C)C)cc2ccccc21
IC50 (Renin): 340 nM

The next lines start with results.

inhibition [2]: 41.1% | inhibition [3]: 6% | inhibition (Pepsin A (Sus scrofa)): 5.6%
Structure (SMILES): CC(C)[C@@H](O)C[C@H](O)[C@H](CC1CCCCC1)NC(=O)[C@H](Cc1c[nH]cn1)NC(=O)c1cc2ccccc2[nH]1
Delta SBP [1]: -12 mmHg | Delta SBP [4]: -13 mmHg | Delta SBP [5]: -15 mmHg

IC50 (Renin): 790 nM
Structure (SMILES): CC(C)[C@@H](O)C[C@H](O)[C@H](CC1CCCCC1)NC(=O)[C@H](Cc1c[nH]cn1)NC(=O)c1cc2ccccc2cn1

IC50 (Renin): 3000 nM
Structure (SMILES): CC(C)[C@@H](O)C[C@H](O)[C@H](CC1CCCCC1)NC(=O)[C@H](Cc1c[nH]cn1)NC(=O)c1ccc[nH]1

IC50 (Renin): 13 nM
Structure (SMILES): CC(C)[C@@H](O)C[C@H](O)[C@H](CC1CCCCC1)NC(=O)[C@H](Cc1c[nH]cn1)NC(=O)c1nc2ccccc2[nH]1
Delta SBP [1]: -9 mmHg | Delta SBP [4]: -7 mmHg | Delta SBP [5]: -13 mmHg

IC50 (Renin): 140 nM
Structure (SMILES): CC(C)[C@@H](O)C[C@H](O)[C@H](CC1CCCCC1)NC(=O)[C@H](Cc1c[nH]cn1)NC(=O)c1cc2ccccc2o1

IC50 (Renin): 48 nM
Structure (SMILES): CC(C)[C@@H](O)C[C@H](O)[C@H](CC1CCCCC1)NC(=O)[C@H](Cc1c[nH]cn1)NC(=O)c1cc2ccccc2c(O)n1
Delta SBP [1]: -5 mmHg | Delta SBP [4]: 2 mmHg | Delta SBP [5]: 1 mmHg
